Laboratory results: US11457629B2, “Heteroarylphenylaminoquinolines and analogues” (Bayer Aktiengesellschaft, priority 2017, dated 2022)

Columns and labels:
[1] = Log P by HPLC on reversed phase columns, method [a] (acidic range, 0.1% formic acid); conditions: HPLC on reversed phase columns, method [a]: acidic range
Experimental: In the following, measurement of Log P values was performed according to EEC directive 79/831 Annex V.A8 by HPLC (High Performance Liquid Chromatography) on reversed phase columns with the following methods: • ^[a]
If more than one Log P value is available within the same method, all the values are given and separated by “+”.
Calibration was done with straight-chain alkan2-ones (with 3 to 16 carbon atoms) with known Log P values (measurement of Log P values using retention times with linear interpolation between successive alkanones).

Leptnosphaeria nodorum = experiment: Example D: Leptnosphaeria nodorum in vitro cell test; assay type: cell-based; conditions: 144 h, read-out: efficacy (inhibition of fungal growth)
[2] = test system: Colletotrichum lindemuthianum; experiment: Example K: comparative data, in vivo preventive test on Colletotrichum lindemuthianum (antrachnose on bean); conditions: rate of application 500 ppm, evaluated 6 days after inoculation
Pyricularia oryzae = experiment: microbe, parasite or virus in culture; assay type: cell-based; conditions: 120 h, read-out: efficacy (inhibition of fungal growth)
Septoria tritici = experiment: Example L: comparative data, Septoria tritici in vitro cell test; assay type: cell-based; conditions: rate of application 4 ppm; 7 days incubation
Experimental: Comparative Data—Septoria tritici In Vitro Cell Test Solvent: DMSOCulture medium: 14.6 g anhydrous D-glucose (VWR), 7.1 g Bacteriological Peptone (Oxoid), 1.4 g granulated Yeast Extract (Merck), QSP 1 literInoculum: spore suspension The compounds to be tested were solubilized in DMSO and the solution used to prepare the required range of concentrations. […] A spore suspension of S. tritici was prepared and diluted to the desired spore density. The tested compounds were evaluated for their ability to inhibit spore germination and mycelium growth in liquid culture assay. The compounds were added in the desired concentration to the culture medium to with spores. […] Inhibition of fungal growth was determined by comparing the absorbance values in wells containing the tested compound with the absorbance in control wells without tested compound.

CC(C)n1ccc(-c2c(F)cccc2Nc2cnc3ccccc3c2)n1 [Example I-027]
logP [1]: 4.05 ^[a] | inhibition at 20 ppm (Leptnosphaeria nodorum): 80 to 89% | Efficacy in % [2]: 65% | inhibition at 20 ppm (Pyricularia oryzae): 90 to 100%

CC(C)(O)c1ccnn1-c1ccccc1Nc1cnc2ccccc2c1 [Example I-063]
chromatographic logP ([1]; logP): 1.79 | Efficacy in % (Septoria tritici): 96%

CC(C)n1ccc(-c2c(F)cccc2Oc2cnc3ccccc3c2)n1 [drawing 54, reference compound]
Efficacy in % [2]: 0%

CC(C)(O)c1ccnn1-c1ccccc1Oc1cnc2ccccc2c1 [reference compound]
Efficacy in % (Septoria tritici): 0%
